How the values were obtained:
[1] = target: Signal transducer and activator of transcription 3 (Homo sapiens, UniProt P40763); assay: Inhibition of human recombinant STAT3 (127 to 722 residues) transcriptional activity expressed in HEK293T cells in presence of IL-6 by Dual-luciferase reporter gene assay; format: cell-based
AGS = assay: Antiproliferative activity against human AGS cells assessed as reduction in cell viability incubated for 72 hrs by MTS assay; format: functional, cell-based
[2] = Inhibition of ATP production in human MKN-45 cells incubated for 20 to 24 hrs by ATP assay kit method; format: functional, cell-based
MKN-45 = assay: Antiproliferative activity against human MKN-45 cells assessed as reduction in cell viability incubated for 72 hrs by MTS assay; format: functional, cell-based; conditions: MKN-45, 72 h
MGC-803 = assay: Antiproliferative activity against human MGC-803 cells assessed as reduction in cell viability incubated for 72 hrs by MTS assay; format: functional, cell-based; conditions: MGC-803, 72 h

Signal transducer and activator of transcription 3, sequence (P40763 whole entry, the tested form may be a part): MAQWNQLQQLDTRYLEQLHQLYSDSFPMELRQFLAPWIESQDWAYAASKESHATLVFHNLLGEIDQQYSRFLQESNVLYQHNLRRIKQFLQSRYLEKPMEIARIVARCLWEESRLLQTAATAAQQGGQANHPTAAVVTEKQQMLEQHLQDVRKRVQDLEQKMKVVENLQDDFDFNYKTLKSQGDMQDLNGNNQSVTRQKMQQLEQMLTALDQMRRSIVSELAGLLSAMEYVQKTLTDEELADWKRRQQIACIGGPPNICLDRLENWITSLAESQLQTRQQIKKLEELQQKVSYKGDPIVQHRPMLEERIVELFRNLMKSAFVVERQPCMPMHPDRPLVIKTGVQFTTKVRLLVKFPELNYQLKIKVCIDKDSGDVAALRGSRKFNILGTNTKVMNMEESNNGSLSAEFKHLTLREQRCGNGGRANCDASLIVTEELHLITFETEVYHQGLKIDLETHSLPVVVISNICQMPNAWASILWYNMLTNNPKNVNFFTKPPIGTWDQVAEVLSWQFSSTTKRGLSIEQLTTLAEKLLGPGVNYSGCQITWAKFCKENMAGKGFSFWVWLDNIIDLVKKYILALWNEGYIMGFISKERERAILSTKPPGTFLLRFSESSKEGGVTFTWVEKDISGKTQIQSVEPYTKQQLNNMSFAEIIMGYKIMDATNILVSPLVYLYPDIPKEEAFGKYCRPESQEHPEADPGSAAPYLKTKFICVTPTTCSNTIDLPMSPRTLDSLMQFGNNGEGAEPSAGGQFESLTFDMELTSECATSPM

Compound	IC50 [1]	IC50 (AGS)	IC50 [2]	IC50 (MKN-45)	IC50 (MGC-803)
O=C(c1ccc(-c2nc(-c3ccc(F)cc3)no2)nc1)N1CCN(Cc2ccc(OCC(F)(F)F)cc2)CC1	123 nM	–	–	–	–
CC(=O)Oc1ccc(CN2CCN(C(=O)c3ccc(-c4nc(-c5ccc(C(F)(F)F)cc5)no4)nc3)CC2)cc1	306 nM	–	–	–	–
COc1ccc(CN2CCN(C(=O)c3ccc(-c4nc(-c5ccc(C(F)(F)F)cc5)no4)nc3)CC2)cc1	147 nM	–	–	–	–
O=C(c1ccc(-c2nc(-c3ccc(C(F)(F)F)cc3)co2)nc1)N1CCN(Cc2ccc(OCC(F)(F)F)cc2)CC1	94.1 nM	–	–	–	–
O=C(c1ccc(-c2nc(-c3cccs3)no2)nc1)N1CCN(Cc2ccc(OCC(F)(F)F)cc2)CC1	> 1000 nM	–	–	–	–
O=C(c1ncccc1-c1nc(-c2ccc(C(F)(F)F)cc2)no1)N1CCN(Cc2ccc(OCC(F)(F)F)cc2)CC1	> 1000 nM	–	–	–	–
Cc1ccc(CN2CCN(C(=O)c3ccc(-c4nc(-c5ccc(C(F)(F)F)cc5)no4)nc3)CC2)cc1	182 nM	–	–	–	–
CCN1CCN(C(=O)c2ccc(-c3nc(-c4ccc(C(F)(F)F)cc4)no3)nc2)CC1	> 1000 nM	–	–	–	–
O=C(/C=C/c1ccc(OC(F)(F)F)cc1)N1CCN(C(=O)c2ccc(-c3nc(-c4ccc(C(F)(F)F)cc4)no3)nc2)CC1	173 nM	–	–	–	–
O=C(c1ccc(-c2nc(-c3ccccc3)no2)nc1)N1CCN(Cc2ccc(OCC(F)(F)F)cc2)CC1	> 1000 nM	–	–	–	–
O=C(c1ccc(-c2nc(-c3ccc(C(F)(F)F)cc3)no2)nc1)N1CCN(Cc2ccc(Br)c(F)c2)CC1	296 nM	–	–	–	–
O=C(c1ccc(-c2nc(-c3ccc(OC(F)(F)F)cc3)no2)nc1)N1CCN(Cc2ccc(OCC(F)(F)F)cc2)CC1	60.2 nM	23.5 nM	93.2 nM	36.4 nM	23.3 nM
O=C(c1ccc(-c2nc(-c3ccc(Br)cc3)no2)nc1)N1CCN(Cc2ccc(OCC(F)(F)F)cc2)CC1	93.2 nM	–	–	–	–
O=C(c1ccc(-c2nc(-c3ccc(C(F)(F)F)cc3)no2)nc1)N1CCN(Cc2ccc(OCC(F)(F)F)cc2)CC1	37.4 nM	8.4 nM	72.5 nM	18.4 nM	11.5 nM
N#Cc1ccc(CN2CCN(C(=O)c3ccc(-c4nc(-c5ccc(C(F)(F)F)cc5)no4)nc3)CC2)cc1	477 nM	–	–	–	–
O=C(c1ccc(-c2nc(-c3ccc(C(F)(F)F)cc3)no2)nc1)N1CCN(Cc2ccc(Cl)cc2)CC1	108 nM	–	–	–	–
O=C(c1ccc(-c2nc(-c3cccc(C(F)(F)F)c3)no2)nc1)N1CCN(Cc2ccc(OCC(F)(F)F)cc2)CC1	130 nM	–	–	–	–
O=C(c1ccc(-c2cn(-c3ccc(C(F)(F)F)cc3)nn2)nc1)N1CCN(Cc2ccc(OCC(F)(F)F)cc2)CC1	113 nM	–	–	–	–
O=C(c1ccc(-c2nc(-c3ccc(C(F)(F)F)cc3)no2)nc1)N1CCN(Cc2ccc(NCC(F)(F)F)cc2)CC1	> 1000 nM	–	–	–	–
O=C(c1ccc(-c2nc(-c3ccc(C(F)(F)F)cc3)no2)nc1)N1CCN(Cc2ccc(Br)cc2)CC1	40.2 nM	77.8 nM	520 nM	108 nM	67.6 nM
CC(C)(C)c1ccc(CN2CCN(C(=O)c3ccc(-c4nc(-c5ccc(C(F)(F)F)cc5)no4)nc3)CC2)cc1	88.1 nM	67.6 nM	200 nM	54.5 nM	31.8 nM
O=C(c1ccc(-c2nc(-c3ccc(C(F)(F)F)cc3)cs2)nc1)N1CCN(Cc2ccc(OCC(F)(F)F)cc2)CC1	516 nM	–	–	–	–
O=C(c1cccc(-c2nc(-c3ccc(C(F)(F)F)cc3)no2)c1)N1CCN(Cc2ccc(OCC(F)(F)F)cc2)CC1	52.1 nM	27.1 nM	55.9 nM	41.6 nM	28.1 nM
O=C(c1ccccc1-c1nc(-c2ccc(C(F)(F)F)cc2)no1)N1CCN(Cc2ccc(OCC(F)(F)F)cc2)CC1	> 1000 nM	–	–	–	–
CC(=O)c1cc2c(o1)C(=O)c1ccccc1C2=O [NAPABUCASIN]	–	437 nM	–	3940 nM	872 nM
O=C(c1ccc(-c2nc(-c3ncccn3)no2)nc1)N1CCN(Cc2ccc(OCC(F)(F)F)cc2)CC1	> 1000 nM	–	–	–	–
O=C(c1ccc(-c2nc(-c3ccc(C(F)(F)F)cc3)no2)nc1)N1CCN(Cc2ccc(F)cc2)CC1	304 nM	–	–	–	–
CS(=O)(=O)c1ccc(CN2CCN(C(=O)c3ccc(-c4nc(-c5ccc(C(F)(F)F)cc5)no4)nc3)CC2)cc1	273 nM	–	–	–	–

From ChEMBL document CHEMBL5108044, “Discovery of a Novel Potent STAT3 Inhibitor HP590 with Dual p-Tyr705/Ser727 Inhibitory Activity for Gastric Cancer Treatment” (J Med Chem, 2022)
